The values below come from ChEMBL document CHEMBL3507680, “University of Dundee, Gates Library screen for HepG2 cell viability”.

The nature of the series: Human HepG2 cell viability assay in 384 well format. It counts as toxicity, cell-based. To be noted: HepG2 cells, read-out: Inhibition. Also on record: dose 125 nL, time 70.5 hour; cytotoxicity at 70.5 h: concentration not given beside the values.
In the case of `CN(CC(C)(C)C)S(=O)(=O)c1ccc(C(F)(F)F)nc1`, the cytotoxicity at 70.5 h is -25.1%. Consider `Cc1nn(C)c2ncc(CN3CCN(Cc4ccco4)CC3)cc12`, for which the cytotoxicity at 70.5 h was -18.7%.

Take `OC(COCc1ccco1)CN1CCC(Cn2cccn2)CC1` (stereo not drawn): the cytotoxicity at 70.5 h is -14.1%. Under `O=C(COCCOc1ccccc1)Nc1ccnn1CC1CCOC1` (stereo not drawn) stands -21.2%; under `CS(=O)(=O)c1cccc(OCC(=O)N2CCCC2c2ccc[nH]2)c1` (stereo not drawn), -7.78%; under `CN(Cc1cnn(C)c1)C(=O)c1cc2ccccc2c(=O)[nH]1`, -9.32%. In the case of `COc1ccc(Cl)cc1NC(=O)CNc1ccn(CC(N)=O)n1`, the cytotoxicity at 70.5 h was found to be 20.1%. Then `CCC(=O)NC1CCCN(C(=O)Nc2cccc(COC(C)C)c2)C1` (stereo not drawn), with 7.06%; and `CC(C(=O)NCC1(c2c(F)cccc2F)CCCC1)S(C)(=O)=O` (stereo not drawn), with -7.67%. On to `O=C(c1[nH]c2ccc(Cl)cc2c1Cl)N1CCC2(CC1)OCCO2`, for which the cytotoxicity at 70.5 h was -0.999%.

On to `COc1ccc(CNC2CCN(c3ccccc3)C2)cc1O` (stereo not drawn), for which the cytotoxicity at 70.5 h was found to be 19.7%. Then `Nc1cc2c(nn1)CCN(C(=O)c1ccccc1Oc1cccnc1)C2`, with -1.03%; and `CN(C)C1(CNC(=O)C/C=C/c2ccc(F)cc2)CCOCC1`, with 22.9%. With `N#Cc1cc(S(N)(=O)=O)ccc1NC1CCc2c(F)cccc21` (stereo not drawn), the cytotoxicity at 70.5 h is -10.4%. Under `Cn1ncc2cnn(CC(O)COCc3ccccc3Cl)c2c1=O` (stereo not drawn) stands -5.81%; under `COCCN(Cc1ccc(F)cc1C#N)CC(F)(F)F`, -10.5%; under `CCN(CCNC(=O)C1CCCN(C(C)=O)C1)c1ccccc1C` (stereo not drawn), -10.5%. Under `c1cnnc(NCC2CN(CCn3cccn3)CCO2)c1` (stereo not drawn) stands -2.81%; under `Cc1nnc(CN2CCCC2c2ccc(Cl)c(Cl)c2)o1` (stereo not drawn), -1.84%; under `CC(C(=O)N(C)C1CCCCC1)S(=O)(=O)Cc1csc(-c2cccs2)n1` (stereo not drawn), -7.18%.

Regarding `CC(C(=O)NCC1CCCCC1)S(=O)(=O)Cc1csc(-c2cccs2)n1` (stereo not drawn), the cytotoxicity at 70.5 h was -9.36%. In the case of `NC(=O)C(NC(=O)COC1CCCCC1)c1ccccc1` (stereo not drawn), the cytotoxicity at 70.5 h is -4.15%.

Take `NC(=O)C(NC(=O)COC1CCCC1)c1ccccc1` (stereo not drawn): the cytotoxicity at 70.5 h is -6.85%. Under `CCN(CC)S(=O)(=O)N1CCCC1C(=O)N1CCSCC1` (stereo not drawn) stands -2.8%.

As for `CN(C)S(=O)(=O)N1CCCC1C(=O)N1CCSCC1` (stereo not drawn), the cytotoxicity at 70.5 h amounted to 22.8%. `O=C(c1ccc(O)nc1)N1CCN(C(=O)c2ccc(F)cc2F)CC1`: the cytotoxicity at 70.5 h is -7.11%. On to `CCN1CCN(c2ccc(C(=O)NCc3cc(C)no3)cc2F)CC1`, for which the cytotoxicity at 70.5 h was -4.13%. For the molecule `CCn1nc2c(cc1=O)CN(CC(=O)Nc1nccs1)CC2`, the cytotoxicity at 70.5 h was -2.47%. Then `CCn1nc2c(cc1=O)CN(CC(=O)N(C)c1nccs1)CC2`, with 25.4%.

`CC(C)n1nc2c(cc1=O)CN(CC(=O)N(C)c1nccs1)CC2`: the cytotoxicity at 70.5 h turned out to be 6.02%. `O=C(NC(C(=O)Nc1cc[nH]n1)c1ccccc1)C1CCC1` (stereo not drawn): the cytotoxicity at 70.5 h is -0.966%.

`COc1cc(C)c(CNC(C)c2csc(C)n2)cc1OC` (stereo not drawn): the cytotoxicity at 70.5 h was -2.42%. For `CCC(O)CN1CCN(C(=O)c2csc(COC)n2)CC1` (stereo not drawn), the cytotoxicity at 70.5 h was -3.48%.

As for `CN(CC1CN(CCn2cc(C#N)cn2)CCO1)c1cccnn1` (stereo not drawn), the cytotoxicity at 70.5 h was -6.68%. Then `OC(COCc1cccs1)Cn1cc(Cl)cn1` (stereo not drawn), with -1.21%; and `OC(COCc1cccs1)Cn1cc(Br)cn1` (stereo not drawn), with -1.14%. For the molecule `Cc1cnn(CCNCc2csc(COc3ccccc3)n2)c1`, the cytotoxicity at 70.5 h was -0.421%. Turning to `CN(C)C(=O)CN(C)C(=O)c1csc(Br)c1`, the cytotoxicity at 70.5 h is 13.6%. Under `COc1ncccc1NC(=O)C1CC(=O)N(Cc2ccccn2)C1` (stereo not drawn) stands 0.729%; under `CN(Cc1cccc(Cl)c1)S(=O)(=O)N1CCOCC1`, 1.29%; under `COCCn1nc(C(=O)N(C)Cc2cnn(C)c2)ccc1=O`, 42.3%. Turning to `COc1cccc(CCNS(=O)(=O)c2ccc(NC(C)=O)cc2)c1`, the cytotoxicity at 70.5 h is 2.8%.

Turning to `CSc1ccc(C(CNC(=O)C2CC2)N2CCc3sccc3C2)cc1` (stereo not drawn), the cytotoxicity at 70.5 h is -2.83%. Under `CN(C)c1ccc(CNC(=O)c2ccc(Cl)cc2F)cc1` stands 3.13%; under `CN(C)C(=O)CNC(=O)c1ccc(Cl)cc1F`, 45.3%; under `Cc1nn(CC(=O)N2CCN(c3ccncc3)CC2)c(C)c1Cl`, 1.17%.

On to `CNS(=O)(=O)c1ccc(C(=O)NC2CCOc3ccccc32)o1` (stereo not drawn), for which the cytotoxicity at 70.5 h was -1.45%. For the molecule `Cc1nc2cc(O)nn2c(C)c1CCC(=O)N(C)Cc1cscn1`, the cytotoxicity at 70.5 h stood at 30.1%.

For `CCS(=O)(=O)CC(=O)NC(c1ccc(F)cc1)C1CCCC1` (stereo not drawn), the cytotoxicity at 70.5 h came out at 1.5%. Then `CCN(CC)C(=O)CCc1c(C)nc2cc(O)nn2c1C`, with -3.01%; and `Cc1cccc(OCCC(=O)N(C)CCC#N)c1C`, with -8.74%; and `CCS(=O)(=O)CC(=O)NC(c1ccccc1)C1CCCCC1` (stereo not drawn), with 2.89%. Under `CN(CCn1nc2ccccn2c1=O)CC(=O)N1CCCC1` stands 4.26%. Turning to `CN(Cc1nccn1CC(F)(F)F)C(=O)c1ccc(F)cc1F`, the cytotoxicity at 70.5 h is -5.49%. As to `CNS(=O)(=O)c1cc(C(=O)NC2CCOc3ccccc32)cc(C)c1C` (stereo not drawn), the cytotoxicity at 70.5 h worked out at 8.79%. Then `Cc1cccc(OCCC(=O)N(C)CCNS(C)(=O)=O)c1C`, with 0.181%; and `CCc1nc(C2CCCN(C(=O)c3cnn(CC)c3)C2)no1` (stereo not drawn), with 2.05%; and `COc1cccc2c1OCC(NC(=O)NC1CCN(C3CC3)CC1)C2` (stereo not drawn), with -5.93%. With `CC(O)CN1CCN(C(=O)c2cc3ccccc3c(=O)[nH]2)CC1` (stereo not drawn), the cytotoxicity at 70.5 h was -1.26%. Regarding `CN(CCN1CCOCC1)C(=O)CCCc1ccccc1`, the cytotoxicity at 70.5 h was -2.26%. As for `CN(CCn1nc2ccccn2c1=O)CC(=O)NC1CC1`, the cytotoxicity at 70.5 h was -8.39%. Under `Cc1cnn(CC2CCCN2C(=O)CCc2c(C)noc2Cl)c1` (stereo not drawn) stands -8.81%. `O=C(c1ccc(F)c(F)c1)N1CCCC1CN1CCCC1` (stereo not drawn): the cytotoxicity at 70.5 h is -1.66%.

For the molecule `O=C(NCCc1nnc2n1CCC2)NC1(c2cccc(F)c2)CC1`, the cytotoxicity at 70.5 h came to 7.47%. Under `CCOc1nnc(CN(C)CC2CCCN2c2cccnn2)s1` (stereo not drawn) stands -4.16%; under `CNC(=O)Cc1ccc(NC(=O)NC(C)C(C)C)cc1` (stereo not drawn), -15.4%. For the molecule `CC(=O)N1CCN(S(=O)(=O)c2ccc(C)c(F)c2)CC1`, the cytotoxicity at 70.5 h was -4.35%.

`Cc1ccc(C(=O)NCCCNS(C)(=O)=O)cc1-n1cccc1`: the cytotoxicity at 70.5 h was -4.62%.

As for `CCNC(=O)NC(=O)CNC1(c2noc(C)n2)CCCCC1`, the cytotoxicity at 70.5 h stood at 28.5%. As to `CC(c1nc(C2CC2)no1)N1CCN(c2ccc(C#N)cn2)CC1` (stereo not drawn), the cytotoxicity at 70.5 h was -10.6%. Under `NC(=O)C(CNC(=O)COCC(F)(F)F)Cc1ccc(F)cc1` (stereo not drawn) stands -18.2%.

Take `CC(C)C(C)NC(=O)Nc1ccc(CS(C)(=O)=O)cc1` (stereo not drawn): the cytotoxicity at 70.5 h is -8.12%. In the case of `Cc1ccc(O)c(CNC2CCc3nc(C(C)C)nn3C2)n1` (stereo not drawn), the cytotoxicity at 70.5 h is -11.7%. Take `CC(C)(C)c1n[nH]c(C2CN(C(=O)c3cc(Cl)c[nH]3)CCO2)n1` (stereo not drawn): the cytotoxicity at 70.5 h was -10.3%.

On to `Cc1ncsc1C(=O)Nc1cccc(OCC(F)F)n1`, for which the cytotoxicity at 70.5 h was -8.57%. Regarding `Cc1nc(CCNC(=O)N2CCC(Cc3cnn(C)c3)C2)cs1` (stereo not drawn), the cytotoxicity at 70.5 h is -29.6%. Under `Cc1cccc(C(=O)N(C)Cc2cc(Br)cs2)n1` stands -27.1%; under `COCC(=O)N1CCN(C(=O)c2scnc2C)CC1`, -11.5%. For `COC(=O)c1ccoc1COC(=O)CCc1ccc(OC)c(OC)c1`, the cytotoxicity at 70.5 h is -15.4%.

For `CCOC(CC)C(=O)NCCC(=O)N1CCN(c2ncccn2)CC1` (stereo not drawn), the cytotoxicity at 70.5 h is -18.6%.

For `Cc1noc(C(C)N2CCN(CC(=O)N3CCOCC3)CC2)n1` (stereo not drawn), the cytotoxicity at 70.5 h worked out at 24%.

`COCCCN(CCOC)C(=O)Nc1ccc(C)cc1C`: the cytotoxicity at 70.5 h turned out to be 0.857%. Then `COCCCN(CCOC)C(=O)Nc1ccccc1Br`, with -15.2%; and `CC(C)(C)c1n[nH]c(C2CN(C(=O)c3cc(C4CC4)on3)CCO2)n1` (stereo not drawn), with 28.3%; and `CC(C)c1nc(C(=O)N2CCOCC2CC(=O)c2ccco2)c[nH]1` (stereo not drawn), with -14.6%.

Regarding `CN(Cc1ccc(Cl)s1)C1CCCN(c2cccnn2)C1` (stereo not drawn), the cytotoxicity at 70.5 h is -11.8%. For the molecule `Cc1cnn(CC2CCCCN2CC(=O)NCc2ccccn2)c1` (stereo not drawn), the cytotoxicity at 70.5 h was -11%.

In the case of `CSCCC(=O)N1CCCC1c1ccsc1` (stereo not drawn), the cytotoxicity at 70.5 h worked out at 13.3%. Then `CCc1nnc2n1CC(CNCc1ccncc1)CC2` (stereo not drawn), with -6.39%. Regarding `CCOc1ncccc1NC(=O)c1cc2c(s1)CCC2`, the cytotoxicity at 70.5 h was 1.84%. As to `COc1ccc(CN(C)C(=O)CCc2c(C)nc(C)[nH]c2=O)cc1OC`, the cytotoxicity at 70.5 h was -7.96%. Under `COc1cccc(NC(=O)N(CCO)Cc2ccsc2)c1` stands -3.88%; under `CC(C)(C(=O)NCC1CC1)c1ccccc1F`, -4.02%. As for `Cc1cnn(CC(C)NCc2nc(-c3cccnc3)no2)c1` (stereo not drawn), the cytotoxicity at 70.5 h was found to be 3.38%.

Regarding `CCc1ccc(C(=O)N2CCCC(n3cncn3)C2)o1` (stereo not drawn), the cytotoxicity at 70.5 h is -2.71%. As for `O=C(c1ccc(Br)o1)N1CCCC(n2cncn2)C1` (stereo not drawn), the cytotoxicity at 70.5 h is -3.18%. For the molecule `NC(=O)CSCCC(=O)N1CCCC1c1ccsc1` (stereo not drawn), the cytotoxicity at 70.5 h is -6.66%. Take `CCCc1n[nH]c(C2CN(C(=O)CCCn3cccn3)CCO2)n1` (stereo not drawn): the cytotoxicity at 70.5 h is -7.13%. As for `CCCc1n[nH]c(C2CN(CCn3cccn3)CCO2)n1` (stereo not drawn), the cytotoxicity at 70.5 h was -6.79%.

`NCC1CCCCN1C(=O)Cc1cccc(Br)c1` (stereo not drawn): the cytotoxicity at 70.5 h was -4.6%. For the molecule `NCC1CCCCN1C(=O)Cc1cccc(Cl)c1` (stereo not drawn), the cytotoxicity at 70.5 h was -6.28%.

On to `NC(=O)COc1ccc(CNCc2ccc(F)cc2F)cc1`, for which the cytotoxicity at 70.5 h was -5.1%. For `Cc1ccccc1CC(C)NCc1c(C)nn(C)c1N1CCOCC1` (stereo not drawn), the cytotoxicity at 70.5 h is -0.684%.
